Experimental data taken from patent publication US9375450B2, “Vaginal tissue rejuvenation compositions and methods” (priority 2011, dated 2016).

Columns and labels:
[1] = system: primary vaginal smooth muscle cells; assay: Fastin assay for elastin (tropoelastin and surface deposited elastin production); assay type: cell-based, human; conditions: for tropoelastin production normalized to cell number (% of control) / cell culture surface deposited elastin production normalized to cell number (% of control): mean±SD; for vaginal smooth muscle cell elastin production (in words): cell cultures of the vagina from women who have undergone a hysterectomy; for cell culture surface deposited elastin production normalized to cell number (% of control): 48 hours of treatment
Method: After removal of the uterus, full-thickness samples of the anterior vaginal wall were obtained from the vaginal cuff at the anterior midline portion under sterile condition from four women without POP. Specimens were preserved in cold DMEM/F12 (Invitrogen, Carlsbad, Calif.) supplemented with 10% FBS, 1 mM glutamine, 0.075% Na2HCO3 and 100 ug/ml penicillin-streptomycin. After a maximum time of 4 hours from tissue harvesting the tissue was mechanically minced in cold cultured media and the fragments were washed 3 times in PBS and were plated onto fibronectin coated plastic dishes (Thermo Fischer Scientific, Rochester, N.Y.). After the initial outgrowth, clones with a morphology resembling the smooth muscle phenotype were patch cloned and propagated in culture. For cell characterization a 5000 cell/well fibronectin coated 8-well chamber slide was plated. Once cell confluence reached 80% the cells were washed twice with PBS and fixed in 4% PFA for 30 min at 37° C. To verify the intracytoplasmic distribution of F-actin fibers 4% PFA fixed cells were exposed to a permeabilizing solution of Tryton X100 0.1% and Rhodamine Phalloidin for 45 min at 37° C. Slides were then treated with mounting media (Vectashield, Vector Laboratories, Burlingame, Calif.) containing DAPI for nucleic acid staining and image acquisition was performed in glycerol immersion by confocal microscopy. In addition, the 8-well chamber slides were used to carry out the immunocytochemical staining. After blockage of endogenous peroxidase activity with a solution of hydrogen peroxide and methanol, slides were sequentially treated with the primary mouse antibody, biotinylated anti-mouse immunoglobulin, and Streptavidin-biotin-peroxidase complex (LSAB™+/HRP kit, Dako, Carpinteria, Calif.). Diaminobenzidine was used as a chromogen in the presence of hydrogen peroxide. Slides were then counterstained with hematoxylin. All reactions were carried out at room temperature (22° C.). To identify the SMC, anti-smooth muscle actin antibodies were used (monoclonal mouse, 1:250, 30 min incubation, clone 1A4, catalog #0851 Dako, Carpinteria, Calif.). Caldesmon expression was studied with a monoclonal mouse antibody, 1:100, 30 min incubation, (clone h-CD catalog #M3557 Dako, Carpinteria, Calif.). An antigen retrieval step was used for caldesmon using citrate buffer and a steamer for 30 min. As a negative control normal mouse serum was substituted for the antibody.
SMC from the fourth to sixth passages (5,000 cells per well) were cultured in 96-well or 6-well culture plates (Costar, Cambridge, Mass.), in a total volume of 200 μL or 2 mL DMEM/F-12 with 10% FBS and were grown to near confluence. Cells were incubated with zinc sulfate (10 μM, 20 μM), GW501516 (1 nM, 10 nM, 100 nM) or zinc sulfate with GW 501516 (20 μM with 10 nM) in 96-well plates with serum free DMEM/F-12. Treatment and control groups were performed in 6 replicate wells. Supernatants and cell lysates were collected 24 or 48 hrs after the initiation of treatment. Supernatants and cell lysates were treated with the Fastin Elastin Assay kit (Biocolor Ltd, UK) as recommended by the manufacturer. The Fastin Elastin Assay is a quantitative dye-binding method for the analysis of elastins extracted from biological materials. The dye label employed is 5, 10, 15, 20-tetraphenyl-21, 23-porphine tetra-suffocated (TPPS). The dye reagent binds to the ‘basic’ and ‘non-polar’ amino acid sequences found in mammalian elastins. Recovered dye-bound elastin from each sample and standard was read in a 96-well plate at 513 nm. All measurements were performed in quadruplicate. The measured elastin protein amounts were normalized to corresponding cell numbers to provide a reliable basis of comparison between samples.

[2] = system: rat vaginal Collagen I, Collagen III, Collagen V protein; assay: Immunofluorescence of vaginal collagen protein expression after 2 weeks vaginal suppositories; assay type: in vivo; conditions: OVX rats, vaginal suppositories 2 weeks, mean±SD; for ratio of vaginal Collagen I to Collagen III protein expression: placebo 1.16±0.2; for ratio of vaginal Collagen I to Collagen V protein expression: placebo 1.28±0.3
Method: Ten to 12-weeks old female ovariectomized (OVX) Sprague-Dawley rats were utilized for the experiments. The animals were acclimatized to the environmental conditions before starting the experiment. The animals were housed individually and were allowed free access to water and rodent food. […] The suppositories were prepared according to the fusion method, using a polypeg suppository base ([…]., USA). […] Using a microwave, the suppository base was melted in a small beaker for 3 min and then transferred and kept into a water bath at a temperature of 55° C. The proper amount of above reagent was added to the liquefied base and meticulously crushed with a smooth rounded-end glass rod for about 20 min to make the solution to be even and clear. A pipette tip was used to suck some amount of solution and push it into a plastic tube with a diameter of 3.5 mm, and the tube was immediately left on the flat surface of an ice bucket. The suppository turned to white in color when it was solid. The moulded suppository was then pushed out of the tube using a round rod. […] After 30 min of cooling at room temperature, the suppositories were stored at 4° C. in a closed chamber until use. They were left to reach room temperature before use. The day after the last treatment the rats were overnight fasted and then sacrificed. Macroscopic measurement (genital hiatus, vaginal length) were taken and the vagina was dissected out carefully to avoid any injury to the vagina. The mid section of the vagina was utilized for histology (H and E stain, Masson's trichrome stain) and immunofluorescence and the rest of the vagina was used for RNA extraction and RT-PCR. Samples were incubated with three different antibodies, collagen I, III and anti-actin or collagen I and V and anti-actin. Frozen tissues samples were cut into sections of 6 μm and fixed for 10 min with acetone, followed by five washes of phosphate-buffered saline (PBS). […] After that, sections were incubated with the secondary antibody for one hour in the dark, at room temperature, followed by five washes of PBS. […] Alexa Fluor 405 Goat Anti-Mouse IgG (1:400) (Invitrogen); Cy3-AffiniPure Goat Anti-Mouse IgM (1:400) (Jackson ImmunoResearch Laboratories, West Grove, Pa.); Alexa Fluor 647 (1;200) phalloidin (Invitrogen). […] Four images were obtained per section. Images were capture with an Orca II-ERG 12 bitt CCD camera in a Zeiss Apotome microscope with a 20× objective. The data was analyzed using Matamorph version 7.7.4 software. Results are represented as mean pixel intensity ratios per square area.

SMILES: O.O.O.O.O.O.O.O=S(=O)([O-])[O-].[Zn+2] [zinc sulfate, zinc sulfate heptahydrate]
- tropoelastin production normalized to cell number (% of control) ([1]; 10 μM, 48 hrs of culture): 113.3±11 % of control
- tropoelastin production normalized to cell number (% of control) ([1]; 20 μM, 48 hrs of culture): 117±8.9 % of control
- vaginal smooth muscle cell elastin production (in words) [1]: significantly increased
- cell culture surface deposited elastin production normalized to cell number (% of control) ([1]; zinc sulfate 10 μM): 114.7±6 % of control
- cell culture surface deposited elastin production normalized to cell number (% of control) ([1]; zinc sulfate 20 μM): 118.0±25 % of control
- ratio of vaginal Collagen I to Collagen III protein expression [2]: 1.37±0.1 relative units
- ratio of vaginal Collagen I to Collagen V protein expression [2]: 1.50±0.4 relative units

SMILES: Cc1cc(SCc2sc(-c3ccc(C(F)(F)F)cc3)nc2C)ccc1OCC(=O)O [GW501516, 2-[2-methyl-4-([4-methyl-2-[4-(trifluoromethyl)phenyl)-1,3-thiazol-5-yl]methylsulfanyl]phenoxy]acetic acid]
- tropoelastin production normalized to cell number (% of control) ([1]; 1 nM, 24 hrs of culture): 106.6±16 % of control
- tropoelastin production normalized to cell number (% of control) ([1]; 10 nM, 24 hrs of culture): 120.5±16 % of control
- tropoelastin production normalized to cell number (% of control) ([1]; 100 nm, 24 hrs of culture): 146.7±11 % of control
- cell culture surface deposited elastin production normalized to cell number (% of control) ([1]; GW 10 nM): 108.2±6 % of control
- cell culture surface deposited elastin production normalized to cell number (% of control) ([1]; GW 100 nM): 112.2±16 % of control
- vaginal smooth muscle cell elastin production (in words) [1]: significantly increase
- ratio of vaginal Collagen I to Collagen III protein expression [2]: 1.20±0.1 relative units
- ratio of vaginal Collagen I to Collagen V protein expression [2]: 1.20±0.4 relative units
